Test results as given in US20220296611A1, “PHARMACEUTICAL COMPOSITION FOR PREVENTING OR TREATING CANCER” (SEOUL NATIONAL UNIVERSITY R&DB FOUNDATION, priority 2019, published 2022).

How the values were obtained:
HeLa cells = assay: Comparison of cell viability of HeLa cells (MTT assay); assay type: cell-based; details: 24 h and 48 h after treatment; TUDCA 1000 μM, fenbendazole 1.2 μM, doxorubicin 10 μM
Description: 3. MTT Assay As illustrated in the flow chart shown in FIG. 1, the degree of cytotoxicity was evaluated through MTT assay. (1) HeLa cells are cervical cancer cell lines. In this experiment, experimental groups were divided as follows: specifically, a group in which HeLa cells are not treated, that is, no treatment group (NT); a doxorubicin-treated group (Doxo); a fenbendazole-treated group (Fen); a TUDCA treated group (TUDCA); and a group treated with a mixture of fenbendazole and TUDCA (Fen+TUDCA), and cell viability was compared over time (24 h, 48 h) after treatment. […] Further, the mixture of fenbendazole and TUDCA was prepared by mixing both compounds with the above concentrations at the same dose. Further, all treatment groups were treated with the corresponding compounds at the same dose.

Hepa cells (Hepa1c1c7) = assay: Comparison of cell viability of Hepa cells (MTT assay, cell number counting); assay type: cell-based, Murin; details: 48 h
Description: After culturing cells, the cells were resuspended in a fresh medium. After obtaining 200 μL of the cell suspension, […] of […] with a dilution factor of 2× was added thereto.
A hemocytometer equipped with a coverslip was prepared, and each chamber was filled with the suspension, followed by counting the number of cells. A specific counting method is as follows.
1) Live cells/ml=No. of cells counted/No. of squares counted×Dilution factor×1000
2) Dead cells/ml=No. of dead cells/No. of squares counted×Dilution factor×100
3) Percentage Viability=No. of live cells/Total No. of cells×100
As illustrated in the flow chart shown in FIG. 1, the degree of cytotoxicity was evaluated through MTT assay.
(1) In the present invention, all liver cancer cell lines were Murin hepatoma cell lines (Hepa1c1c7), hereinafter, referred to as Hepa cells. In this experiment, the following definitions were applied: no treatment group (NT); a fenbendazole treatment group (Fen); a TUDCA 200 μmol treatment group (TUDCA 200); a TUDCA 500 μmol treatment group (TUDCA 500); a TUDCA 1000 μmol treatment group (TUDCA 1000); a mixture of 1.2 μmol fenbendazole and 200 μmol TUDCA (1.2+200); a mixture of 1.2 μmol fenbendazole and 500 μmol TUDCA (1.2+500); a mixture of 1.2 μmol fenbendazole and 1000 μmol TUDCA (1.2+1000), respectively. […]

Row | Compound | apoptotic effects (cell viability of HeLa cells) compared to doxorubicin (HeLa cells) | apoptosis effect depending on the concentration of TUDCA (Hepa cells (Hepa1c1c7))
1 | C[C@H](CCC(=O)NCCS(=O)(=O)O)[C@H]1CC[C@H]2[C@@H]3[C@@H](O)C[C@@H]4C[C@H](O)CC[C@]4(C)[C@H]3CC[C@]12C [TUDCA, tauroursodeoxycholic acid] | more excellent apoptotic effects at 24 h and 48 h after treatment than doxorubicin | the higher the concentration of TUDCA, the better the apoptosis effect at 48 h
2 | COC(=O)Nc1nc2ccc(Sc3ccccc3)cc2[nH]1 [fenbendazole] | more excellent apoptotic effects at 24 h and 48 h after treatment than doxorubicin | 
